Measurements as given in publication PMC6364417, “Kinase inhibitor library screening identifies synergistic drug combinations effective in sensitive and resistant melanoma cells” (Journal of Experimental & Clinical Cancer Research : CR, 2019).

Legend:
Assay in all cases: Kinase inhibitor library screening, PrestoBlue cell viability, 1 or 10 μM, 72 h
[1] = system: IGR37-GP cells (Dabrafenib-resistant)
[2] = system: IGR37-XP cells (Vemurafenib-resistant)
IGR37 cells (parental) = system: IGR37 cells (parental)
[3] = system: 501Mel-XP cells (Vemurafenib-resistant)
A375 cells (parental) = system: A375 cells (parental)
[4] = system: 501Mel-GP cells (Dabrafenib-resistant)
501Mel cells (parental) = system: 501Mel cells (parental)
Method in brief: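 Normalised to untreated controls, viability percentages came from PrestoBlue measured on a microplate reader following 72 h incubation with drug. Each line was assayed at least twice.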

[5] = system: A375-XP cells (Vemurafenib-resistant)
[6] = system: A375-GP cells (Dabrafenib-resistant)

SMILES: Cc1cccc(-c2[nH]c(C(C)(C)C)nc2-c2ccc3nccnc3c2)n1 [SB 525334]
- cell viability (kinase inhibitor library screening) ([1]; IGR37 GP, 1μΜ, in %): 99.0
- cell viability (kinase inhibitor library screening) ([1]; IGR37 GP, 10μΜ, in %): 73.8
- cell viability (kinase inhibitor library screening) ([2]; IGR37 XP, 1μΜ, in %): 91.6
- cell viability (kinase inhibitor library screening) ([2]; IGR37 XP, 10μΜ, in %): 60.0
- cell viability (kinase inhibitor library screening) (IGR37 cells (parental); IGR37 Parental, 1μΜ, in %): 104.1
- cell viability (kinase inhibitor library screening) (IGR37 cells (parental); IGR37 Parental, 10μΜ, in %): 104.6
- cell viability (kinase inhibitor library screening) ([3]; 501Mel XP, 1μΜ, in %): 100.5
- cell viability (kinase inhibitor library screening) ([3]; 501Mel XP, 10μΜ, in %): 78.5
- cell viability (kinase inhibitor library screening) (A375 cells (parental); A375 Parental, 1μΜ, in %): 112.1
- cell viability (kinase inhibitor library screening) (A375 cells (parental); A375 Parental, 10μΜ, in %): 110.1
- cell viability (kinase inhibitor library screening) ([4]; 501Mel GP, 1μΜ, in %): 110.1
- cell viability (kinase inhibitor library screening) ([4]; 501Mel GP, 10μΜ, in %): 89.8
- cell viability (kinase inhibitor library screening) (501Mel cells (parental); 501Mel Parental, 1μΜ, in %): 98.2
- cell viability (kinase inhibitor library screening) (501Mel cells (parental); 501Mel Parental, 10μΜ, in %): 90.3
- cell viability (kinase inhibitor library screening) ([5]; A375 XP, 1μΜ, in %): 109.3
- cell viability (kinase inhibitor library screening) ([5]; A375 XP, 10μΜ, in %): 103.4
- cell viability (kinase inhibitor library screening) ([6]; A375 GP, 1μΜ, in %): 114.6
- cell viability (kinase inhibitor library screening) ([6]; A375 GP, 10μΜ, in %): 93.3

SMILES: Cc1cc(Nc2ncnc3ccc(NC4=NC(C)(C)CO4)cc23)ccc1Oc1ccn2ncnc2c1 [Arry-380]
- viability at 1 µM ([1]; Homo sapiens, IGR-37, 72 h, read-out: cell viability, IGR37 GP, 1μΜ): 96.4%
- viability at 10 µM ([1]; Homo sapiens, IGR-37, 72 h, read-out: cell viability, IGR37 GP, 10μΜ): 57.2%
- viability at 1 µM ([2]; Homo sapiens, IGR-37, 72 h, read-out: cell viability, IGR37 XP, 1μΜ): 99.7%
- viability at 10 µM ([2]; Homo sapiens, IGR-37, 72 h, read-out: cell viability, IGR37 XP, 10μΜ): 24.3%
- viability at 1 µM (IGR37 cells (parental); Homo sapiens, IGR-37, 72 h, read-out: cell viability, IGR37 Parental, 1μΜ): 108%
- viability at 10 µM (IGR37 cells (parental); Homo sapiens, IGR-37, 72 h, read-out: cell viability, IGR37 Parental, 10μΜ): 103%
- viability at 1 µM ([3]; Homo sapiens, 72 h, read-out: cell viability, 501Mel XP, 1μΜ): 117%
- viability at 10 µM ([3]; Homo sapiens, 72 h, read-out: cell viability, 501Mel XP, 10μΜ): 52.3%
- viability at 1 µM (A375 cells (parental); Homo sapiens, A-375, 72 h, read-out: cell viability, A375 Parental, 1μΜ): 105%
- viability at 10 µM (A375 cells (parental); Homo sapiens, A-375, 72 h, read-out: cell viability, A375 Parental, 10μΜ): 89.6%
- viability at 1 µM ([4]; Homo sapiens, 72 h, read-out: cell viability, 501Mel GP, 1μΜ): 101%
- viability at 10 µM ([4]; Homo sapiens, 72 h, read-out: cell viability, 501Mel GP, 10μΜ): 56.8%
- viability at 1 µM (501Mel cells (parental); Homo sapiens, 72 h, read-out: cell viability, 501Mel Parental, 1μΜ): 103%
- viability at 10 µM (501Mel cells (parental); Homo sapiens, 72 h, read-out: cell viability, 501Mel Parental, 10μΜ): 69.6%
- viability at 1 µM ([5]; Homo sapiens, A-375, 72 h, read-out: cell viability, A375 XP, 1μΜ): 106%
- viability at 10 µM ([5]; Homo sapiens, A-375, 72 h, read-out: cell viability, A375 XP, 10μΜ): 80.2%
- viability at 1 µM ([6]; Homo sapiens, A-375, 72 h, read-out: cell viability, A375 GP, 1μΜ): 105%
- viability at 10 µM ([6]; Homo sapiens, A-375, 72 h, read-out: cell viability, A375 GP, 10μΜ): 77.8%

SMILES: Cc1cnc(Nc2ccc(OCCN3CCCC3)cc2)nc1Nc1cccc(S(=O)(=O)NC(C)(C)C)c1 [TG101348 (SAR302503)]
- cell viability, IGR37 GP, 10μΜ ([1]; IGR37 GP, 10μΜ, 72 h): 6.2%
- cell viability, IGR37 GP, 1μΜ ([1]; IGR37 GP, 1μΜ, 72 h, in %): 95.7
- cell viability, IGR37 XP, 10μΜ ([2]; IGR37 XP, 10μΜ, 72 h): 2%
- cell viability, IGR37 XP, 1μΜ ([2]; IGR37 XP, 1μΜ, 72 h, in %): 94.2
- cell viability, IGR37 Parental, 1μΜ (IGR37 cells (parental); IGR37 Parental, 1μΜ, 72 h, in %): 98.0
- cell viability, IGR37 Parental, 10μΜ (IGR37 cells (parental); IGR37 Parental, 10μΜ, 72 h, in %): 21.1
- cell viability, 501Mel XP, 1μΜ ([3]; 501Mel XP, 1μΜ, 72 h, in %): 89.8
- cell viability, 501Mel XP, 10μΜ ([3]; 501Mel XP, 10μΜ, 72 h, in %): -0.1
- cell viability, A375 Parental, 1μΜ (A375 cells (parental); A375 Parental, 1μΜ, 72 h, in %): 100.2
- cell viability, A375 Parental, 10μΜ (A375 cells (parental); A375 Parental, 10μΜ, 72 h, in %): 12.9
- cell viability, 501Mel GP, 10μΜ ([4]; 501Mel GP, 10μΜ, 72 h, in %): 1.0
- cell viability, 501Mel Parental, 1μΜ (501Mel cells (parental); 501Mel Parental, 1μΜ, 72 h, in %): 98.7
- cell viability, 501Mel Parental, 10μΜ (501Mel cells (parental); 501Mel Parental, 10μΜ, 72 h, in %): 1.4
- cell viability, A375 XP, 1μΜ ([5]; A375 XP, 1μΜ, 72 h, in %): 99.7
- cell viability, A375 XP, 10μΜ ([5]; A375 XP, 10μΜ, 72 h, in %): 17.0
- cell viability, A375 GP, 1μΜ ([6]; A375 GP, 1μΜ, 72 h, in %): 89.1
- cell viability, A375 GP, 10μΜ ([6]; A375 GP, 10μΜ, 72 h, in %): 15.0
